Legend:
Assay in all cases: relative viability (nuclei count vs DMSO), 5 days (fraction); higher = more cells survive
Carboplatin + Foretinib = compound: C1CC(C1)(C(=O)O)C(=O)O.[NH2-].[NH2-].[Pt+2] [Carboplatin] + COc1cc2c(Oc3ccc(NC(=O)C4(C(=O)Nc5ccc(F)cc5)CC4)cc3F)ccnc2cc1OCCCN1CCOCC1 [Foretinib] (partner 0.25 µM)
Procedure, shortened: (§1)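 Relative viability is defined as nuclei in treated wells over nuclei in vehicle wells. Duplicate plates were run and medians reported. Lung cancer cell lines in 1536-well plates were dosed by pin tool one day after seeding, with one drug or with a fixed anchor-drug dose plus five library-drug doses (not always all listed) in √10 steps, and nuclei were counted after 5 days.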

Carboplatin + Lapatinib = compound: C1CC(C1)(C(=O)O)C(=O)O.[NH2-].[NH2-].[Pt+2] [Carboplatin] + CS(=O)(=O)CCNCc1ccc(-c2ccc3ncnc(Nc4ccc(OCc5cccc(F)c5)c(Cl)c4)c3c2)o1 [Lapatinib] (partner 2 µM)
Procedure, shortened: as §1

GSK126 + Tozasertib = compound: CC[C@H](C)N1C=C(C2=C(C=C(C=C21)C3=CN=C(C=C3)N4CCNCC4)C(=O)NCC5=C(C=C(NC5=O)C)C)C [GSK126] + Cc1cc(Nc2cc(N3CCN(C)CC3)nc(Sc3ccc(NC(=O)C4CC4)cc3)n2)n[nH]1 [Tozasertib] (partner 0.1 µM)
Procedure, shortened: as §1

GSK126 + Decitabine = compound: CC[C@H](C)N1C=C(C2=C(C=C(C=C21)C3=CN=C(C=C3)N4CCNCC4)C(=O)NCC5=C(C=C(NC5=O)C)C)C [GSK126] + Nc1ncn([C@H]2C[C@H](O)[C@@H](CO)O2)c(=O)n1 [Decitabine] (partner 2 µM)
Procedure, shortened: as §1

Cell Line	relative viability (Carboplatin + Foretinib; first compound 0.08 µM)	relative viability (Carboplatin + Foretinib; first compound 0.253 µM)	relative viability (Carboplatin + Foretinib; first compound 0.8 µM)	relative viability (Carboplatin + Foretinib; first compound 2.53 µM)	relative viability (Carboplatin + Foretinib; first compound 8 µM)	relative viability (Carboplatin + Lapatinib; first compound 0.08 µM)	relative viability (Carboplatin + Lapatinib; first compound 0.253 µM)	relative viability (Carboplatin + Lapatinib; first compound 0.8 µM)	relative viability (Carboplatin + Lapatinib; first compound 2.53 µM)	relative viability (Carboplatin + Lapatinib; first compound 8 µM)	relative viability (GSK126 + Tozasertib; first compound 0.08 µM)	relative viability (GSK126 + Tozasertib; first compound 0.253 µM)	relative viability (GSK126 + Tozasertib; first compound 0.8 µM)	relative viability (GSK126 + Tozasertib; first compound 2.53 µM)	relative viability (GSK126 + Tozasertib; first compound 8 µM)	relative viability (GSK126 + Decitabine; first compound 0.08 µM)	relative viability (GSK126 + Decitabine; first compound 0.253 µM)	relative viability (GSK126 + Decitabine; first compound 0.8 µM)	relative viability (GSK126 + Decitabine; first compound 2.53 µM)	relative viability (GSK126 + Decitabine; first compound 8 µM)
NCI-H1650	1.51	1.25	0.986	0.982	0.779	0.944	0.878	0.825	0.795	0.661	0.42	0.455	0.394	0.356	0.3	0.437	0.541	0.522	0.402	0.495
NCI-H1651	0.791	0.827	0.822	0.795	0.413	0.852	0.743	0.965	0.837	0.497	0.717	0.728	0.864	0.57	0.537	0.64	0.634	0.606	0.772	0.624
NCI-H1666	0.977	0.918	0.823	0.832	0.607	0.662	0.665	0.578	0.498	0.468	0.667	0.624	0.557	0.52	0.49	0.731	0.755	0.755	0.82	0.726
NCI-H1734	0.777	0.877	0.827	0.954	0.812	1.01	1.07	1.06	1.01	0.833	0.322	0.235	0.295	0.224	0.283	0.511	0.517	0.492	0.515	0.496
NCI-H1755	1.01	0.897	0.899	0.929	0.86	1.06	1.1	1.11	1.09	0.995	0.577	0.64	0.53	0.552	0.508	0.696	0.68	0.684	0.662	0.714
NCI-H1793	0.939	0.773	0.882	0.718	0.724	0.941	0.49	0.485	0.628	0.833	0.324	0.331	0.422	0.475	0.363	0.601	0.423	0.48	0.567	0.475
NCI-H1915	1.12	1.13	1.04	1.05	0.81	0.906	1.03	0.976	0.999	0.577	0.486	0.436	0.447	0.438	0.415	0.277	0.262	0.262	0.256	0.252
NCI-H1944	0.971	0.855	0.854	0.789	0.601	0.783	0.978	0.833	0.919	0.586	0.261	0.24	0.247	0.23	0.28	0.526	0.413	0.419	0.433	0.411
NCI-H1975	1.08	1.02	0.782	0.88	0.946	0.877	0.993	0.838	0.826	0.884	0.833	0.69	0.762	0.648	0.48	0.427	0.321	0.431	0.397	0.377
NCI-H1993	1.02	0.903	0.763	0.658	0.744	0.834	0.843	0.909	0.791	0.853	0.586	0.639	0.585	0.659	0.649	0.686	0.597	0.575	0.555	0.605
NCI-H2009	1.25	1.18	1.12	1	0.767	1.37	0.89	0.837	0.958	0.572	0.798	0.705	0.639	0.615	0.464	0.372	0.334	0.45	0.403	0.381
NCI-H2023	0.859	0.926	0.897	0.695	0.282	0.941	1.21	0.954	0.68	0.257	0.387	0.342	0.339	0.266	0.184	0.267	0.232	0.205	0.209	0.219
NCI-H2085	1.05	0.933	1.1	0.899	0.691	0.8	0.897	0.787	0.748	0.815	0.918	0.734	0.76	0.72	0.654	0.551	0.511	0.588	0.615	0.518
NCI-H2087	1.18	1.14	1.15	0.957	0.757	1.22	0.968	0.86	0.969	0.833	0.23	0.222	0.214	0.202	0.258	0.246	0.272	0.269	0.293	0.346
NCI-H2126	1.31	1.14	1.04	1.25	1.04	0.737	0.758	0.796	0.8	0.721	1	0.835	0.871	0.838	0.812	0.567	0.591	0.609	0.622	0.593
NCI-H2170	0.994	0.527	1.02	0.942	0.468	0.273	0.279	0.269	0.257	0.262	0.697	0.661	0.764	0.651	0.661	0.517	0.467	0.44	0.467	0.444

From the supplement of paper PMC10307832
